Assay results as given in US20130011376A1, “Methods for Enhancing Natural Killer Cell Proliferation and Activity” (GAMIDA CELL LTD., priority 2009, published 2013).

Legend:
Type in all cases: cell-based, human
[1] = tested on: monocyte (CD14+) and granulocyte (CD15+) cells; assay: Contaminating monocytes and granulocytes in NK cell cultures (FACS); details: 14 days culture
Description: For depletion procedure, total nuclear cells from umbilical cord blood (CB), bone marrow (BM) or peripheral blood (PB) cells were layered on a Ficoll-Hypaque gradient (1.077 g/mL; Sigma), and centrifuged at 800×g for 30 minutes for separation of the mononuclear cells. The cells in the interface layer were collected and washed three times in phosphate-buffered saline (PBS) (Biological Industries, Israel) containing 0.5% HSA. Optionally, cells are not separated on the Ficoll-Hypaque gradient but washed three times in phosphate-buffered saline (PBS) (Biological Industries) containing 0.5% HSA (“total mononuclear fraction”). CD3 cells were depleted using the CD3 cell isolation kit (Miltenyi Biotec Bergisch, Gladbach, Germany) and the entire CD3 negative cell fraction was cultured. […] After negative depletion the cells were counted and characterized by FACS analysis.
3. […] To estimate number of cells in culture, cell samples were counted following staining with trypan blue. […]
Methods for expansion of NK cells in culture, for use in the clinical setting, must be somewhat specific for the NK cell population, lest contaminating non-NK cells also proliferate due to cell culture conditions. The effect of nicotinamide on non-NK cells was evaluated by monitoring monocyte and granulocyte populations in NK cell cultures exposed to 2.5, 5 and 7.5 mM nicotinamide.

[2] = tested on: peripheral blood CD56+ NK cells; assay: CXCR4 and CD62L expression on NK cells co-cultured with irradiated mononuclear cells; details: co-culture with irradiated mononuclear cells, nicotinamide 2.5 and 5 mM
Excerpt: (§1) NK cell cells from total mononuclear cell fraction, purified CD56+ or CD56+CD3− cells from total nuclear or mononuclear cells or from the fraction depleted from CD34+ or CD133+ cells, or CD3+ depleted, or CD3+/CD19+ depleted mononuclear cell fraction from PB, BM and CB can be cultured with irradiated stroma. For the preparation of irradiated stroma (feeder cells), mononuclear cells were irradiated with 3000 rad. After CD56 or CD56+CD3− selection or CD3 depletion the cells were counted and characterized by FACS analysis as described hereinabove. Cells were cultured as described hereinabove, with and without nicotinamide, with and without irradiated stroma at a concentration of irradiated cells of 20×10^5 cells/ml.
The cells were washed with a PBS solution containing 1% BSA, and stained (at 4° C. for 30 min) with fluorescein isothiocyanate (FITC)- or phycoerythrin (PE)-conjugated antibodies or allophycocyanin (APC). The cells were then washed in the above buffer and analyzed using a FACScalibur® flow cytometer (Becton Dickinson, San Jose, Calif., USA). […] Emission of 10^4 cells was measured using logarithmic amplification, and analyzed using the CellQuest software (Becton Dickinson). Cells stained with FITC, PE and APC-conjugated isotype control antibodies were used to determine background fluorescence. […]

[3] = tested on: peripheral blood CD56+ NK cells; assay: Proliferation of peripheral blood CD56+ NK cells co-cultured with irradiated feeder cells; details: 2.5 mM and 5 mM nicotinamide, day 21, irradiated feeder cells 10:1
Excerpt: as §1
(§2) To determine total number of cells on day 7, 14 and 21, the cell count/ml was multiplied by the volume of the culture medium. In order to determine the number of NK cells in culture, the total number of cells in culture was multiplied by the percent of CD56+/CD3− cells measured with the FACS on days 7, 14 or 21. To measure fold expansion, total number of NK cells on days 7, 14 and 21 was divided by total number of NK cells seeded in culture on day-0.
Peripheral blood-derived mononuclear cell fractions were CD3 depleted and then selected for CD56+ cells by immunobead purification. […]

[4] = tested on: peripheral blood NK (T-cell depleted) cells; assay: Expansion of CD3+ or CD3+/CD19+ depleted peripheral blood NK cells in culture bags
Description: For depletion procedure, total nuclear cells from umbilical cord blood (CB), bone marrow (BM) or peripheral blood (PB) cells were layered on a Ficoll-Hypaque gradient (1.077 g/mL; Sigma), and centrifuged at 800×g for 30 minutes for separation of the mononuclear cells. The cells in the interface layer were collected and washed three times in phosphate-buffered saline (PBS) (Biological Industries, Israel) containing 0.5% HSA. Optionally, cells are not separated on the Ficoll-Hypaque gradient but washed three times in phosphate-buffered saline (PBS) (Biological Industries) containing 0.5% HSA (“total mononuclear fraction”). CD3 cells were depleted using the CD3 cell isolation kit (Miltenyi Biotec Bergisch, Gladbach, Germany) and the entire CD3 negative cell fraction was cultured. Optionally, CD19 cells were also depleted using the CD19 cell isolation kit (Miltenyi Biotec Bergisch, Gladbach, Germany) and the CD3/CD19 negative (CD3/CD19 depleted) cell fraction was cultured. Optionally, RosetteSep Human CD3+ Cell Depletion Cocktail (Stem Cell Technologies, RosestteSep, Cat. No. 15661)] was used for CD3 depletion and the entire CD3 negative cell fraction was cultured. After negative depletion the cells were counted and characterized by FACS analysis.
3. CD3+ depleted, or CD3+/CD19+ depleted mononuclear cell fraction from PB, BM and CB were cultured in culture bags, T-Flasks or 24 well plates at a concentration of 1−1000×10^4 cells/ml in MEMα/10% FCS or CellGro SCGM (Cell Genix)/5% Human Serum/LiforCell® FBS Replacement (Lifeblood Products) containing the following human recombinant cytokines: interleukin-2 (IL-2) or and interleukin-15 (IL-15), with or without FLT-3 or SCF or FLT3 and SCF (5-50 ng/ml) (Perpo Tech, Inc., Rocky Hill, N.J., USA), all combinations, with or without nicotinamide and incubated at 37° C. in a humidified atmosphere of 5% CO2 in air. The cultures were topped weekly or twice a week with the same volume of fresh medium containing growth factors with or without nicotinamide. Cultures were later supplemented once or several times a week with IL-2 and or IL-2 and IL-15. To estimate number of cells in culture, cell samples were counted following staining with trypan blue. At various time points, samples are taken to FACS analysis to assay the relative fractions of NK cells, CD56+CD3−, CD56+CD3+, CD34+CD56+, CD56+CD16+ and/or CD56+ NKG2A cells.
In order to calculate the number of NK cells on day 0, the total number of cells seeded on day 0 was multiplied by the percent of CD56+/CD3− cells measured by the FACS on day 0.
as §2

[5] = tested on: CD3+ T cells and CD3+CD56+ NKT cells; assay: T and NKT cell fractions in peripheral blood NK cell cultures (FACS); details: increasing nicotinamide concentration (2.5 to 7.5 mM), three weeks
Description: Purified CD56+ or CD56+CD3− cells from total nuclear or mononuclear cells or from the fraction depleted from CD34+ or CD133+ cells were cultured in culture bags, T-Flasks or 24 well plates at a concentration of 1-100×10^4 cells/ml in MEMα/10% FCS or CellGro SCGM (Cell Genix)/5% Human Serum/LiforCell® FBS Replacement (Lifeblood Products) containing the following human recombinant cytokines:, interleukin-2 (IL-2) (5-50 ng/ml), interleukin-15 (IL-15), FLT-3 or SCF or FLT3 and SCF or IL-2 and IL-15 or IL-2 only (Perpo Tech, Inc., Rocky Hill, N.J., USA), with or without nicotinamide, and incubated at 37° C. in a humidified atmosphere of 5% CO2 in air. The cultures were topped up once or twice a week with the same volume of fresh medium containing growth factors with or without nicotinamide. […]

NC(=O)c1cccnc1 [nicotinamide]
suppression of CD14 proliferation [1]: greater than 50% | suppression of granulocyte proliferation [1]: greater than 50% | expression of surface marker CD62L [2]: marked increase | expression of surface marker CXCR4 [2]: marked increase | fold increase of NK cells relative to control (cytokines+irradiated mononuclear cells) [3]: at least 4 times | NK expansion relative to control cultures without nicotinamide ([4]; 2.5 mM and 5 mM nicotinamide, after 14 and 21 days, IL-2 or IL-2+IL-15): significantly higher | CD56+CD3- NK cell proliferation ([4]; 2.5 mM and 5 mM, 21 days, seeding 2-, 5-, and 10x10^5 cells): profound enhancement | NK (CD56+CD3-) cells among cells in culture ([4]; 2-3 weeks in culture with nicotinamide, seeded 2-10% NK cells): more than 90% | non-NK cell fraction vs control cultures ([4]; 2.5 and 5 mM nicotinamide, 21 days post seeding): smaller | NK cell proliferation from day 14 to day 21 ([4]; grown with nicotinamide): continue to proliferate | fraction of CD3+ T cells [5]: reduction | fraction of CD3+CD56+ NKT cells [5]: reduction
